# Source: patent publication US10316293B2, “Methods for producing single pluripotent stem cells and differentiation thereof” (LifeScan, Inc., priority 2007, dated 2019)
# What was measured:
# [1] = test system: Human embryonic stem cells H9p33; assay: Cell releasing enzyme panel: passage of hES cell clusters as single cells, recovered cells counted with trypan blue; assay type: cell-based; details: for CELL NUMBER: recovered cells/well after three days on MATRIGEL, reseeded at 200,000 cells/well (collagenase: clusters, 30 minute incubation, 1:5 dilution)
# Description: Human embryonic stem cells H9p33 cells grown in clusters in a 6 well dish were incubated with the following enzymes; TrypLE™ Express (stable tryspin-like enzyme (Invitrogen (Carlsbad, Calif.)), TrypLE™ Select (animal origin-free trypsin-like enzyme Invitrogen (Carlsbad, Calif.)), trypsin/EDTA (0.05%), or trypsin (0.25%), for two minutes at 36° C. All enzymes released the cells within two minutes except trypsin. Release with trypsin was achieved after five minutes at 36° C. Cells were reseeded at 200,000 cells/well into a 6 well plate coated with MATRIGEL™ and allowed to expand for three days. Human embryonic stem cells were also passed as clusters with collagenase (30 minute incubation) and reseeded at a 1:5 dilution on MATRIGEL™-coated wells, similar to the counted TrypLE™ Express cells. After three days, the hESC were released by a five minute incubation with TrypLE™ Express. Cells were incubated with 0.01% trypan blue and then counted (Table 1). Cell viability immediately after release was greater than 98% for all enzymes tested. Passage of human embryonic stem cells with collagenase is the standard passaging method. […] TrypLE™ Select and TrypLE™ Express were the best enzymes evaluated and were further tested in a time course experiment, Example 3.
# H1 passage 37 hES cells = assay: Passage of hES cells directly from MEF feeders to MATRIGEL with enzymes; assay type: cell-based, human
# Description: In an effort to move to a feeder free culture of hES cells from a feeder based culture, H1 passage 37 hES cells that had been supported by a MEF feeder layer in hESC media and grown for 5 days on 10 cm^2 wells of 6 well plates were passaged. The cells were passaged with either TrypLE™, Accutase™, or 1 mg/ml of collagenase.
# Before adding enzyme to the cells, the spent media was aspirated, 1 ml PBS (no Ca^2+, or Mg^2+) was added to each well, was aspirated again, and then 1 ml of room temperature enzyme (collagenase, Accutase™, or TrypLE™) was added. Accutase™ or TrypLE™ were used at stock concentration after reaching room temperature. Collagenase was removed from −80° C. freezer, thawed, mixed with 9 ml DMEM/F12, sterile filtered, and allowed to reach room temperature before use.
# The cells were incubated in enzyme at 37° C. for 10 min. […] One ml of 2% Probumin in DMEM-F12 was added to each well and the combined total volume in the well was transferred to a 50 ml sterile conical tube, making sure to lift and suspend as many cells as possible.
# The cells were centrifuged for 5 minutes at 200×g followed by an additional wash with 2% Probumin and centrifugation for 5 minutes at 200×g. Cell were then resuspended in MEF conditioned media and plated at a 1 to 3.5 ratio onto MATRIGEL™ (1:30 dilution in DMEM) coated T25 flasks, and placed in a 37° C., 5% CO2, humidified incubator.
# Cell number was calculated by counting with an Improved Neubauer hemocytomer. […] Given a 1 to 3.5 split ratio, we plated the Accutase treated cells at a seeding density of 2.72 million cells/T25flask or 108,000 cells/cm^2, the TrypLE™ treated cells at a seeding density 2.65 million cells/T25flask or 105,000 cells/cm^2. It is assume that Collagenase treated wells were seeded at a similar density (105,000 to 108,000 cells/cm^2), since there was no appreciable difference in hES density from well to well before enzyme treatment. An additional flask was plated with Collagenase lifted cells for counting purposes at the next passage.
# Cells were maintained for 4 days with daily changes of MEF conditioned media supplemented with […] of bFGF. After 4 days in culture the cultures were confluent, and the single cell treated hES cells formed monolayers of hES cells with occasional pockets of fibroblasts, while the cluster passaged hES cells formed large colony style clusters of hES cells (FIG. 13). These cells were then passaged again.
# As previously described, the cells were incubated in enzyme at 37° C. for 10 min. […] The additional collagenase flask was lifted with Accutase™. The single cells were then with an Improved Neubauer hemocytometer.
# Two ml of 2% Probumin in DMEM-F12 was then added to each flask after enzyme incubation, the total volume (˜4 ml) from the flask was pipetted up and down 5-10 times in order to suspend as many cells as possible. The suspension was then transferred to a 50 ml conical tube and centrifuged for 5 min at 200×g. Cells were then resuspended in MEF conditioned media supplemented with […] of bFGF, and then plated to T25 flasks precoated with 1:30 MATRIGEL™ at a ratio of 1:4.
# Given that the cells were passaged at a 1:4 ratio, the cells were plated at a density of 58,000 cell/cm^2 for Accutase™ passage, 51,000 cell/cm^2 for TrypLE™ passage, and 35,000 cell/cm^2.
# Cells were then grown for an additional 6 days, with daily media change of MEF conditioned media supplemented with 16 ng/ml of bFGF.
# hES H9scp18 = assay: Definitive endoderm differentiation of hES single cells in 96 well plates, IN Cell 1000 cell number and Sox17 staining; assay type: cell-based, human; details: 10 ng/ml Wnt3a, with 100 ng/ml Activin A, 0.5% FBS, two days; 40 wells
# Description: hES H9scp18 were seeded into Packard View 96-well plates (Perkin-Elmer) coated with 1:30 growth factor reduced MATRIGEL™ at a density of 14,000 cells/cm^2. The cells were grown for three to four days in MEF conditioned medium and then treated using a DE differentiation protocol. A subset of 40 wells was treated with a standard protocol (10 ng/ml Wnt3a, 100 ng/ml Activin A, and 0.5% FBS in DMEM:F12 for two days). A second subset of 40 wells was treated with the GSK3b inhibitor IX (100 nM; EMD Chemicals, La Jolla, Calif.) instead of Wnt3a. This was followed by treatment for both subsets for three days with 100 ng/ml Activin A and 2% FBS in DMEM:F12. At the end of culture, cells were fixed with 4% paraformaldehyde at room temperature for 20 minutes, washed three times with PBS, and stored in 100 ul PBS overnight. Cells were permeabilized with 0.5% Triton X-100 (Sigma-Aldrich), either at room temperature for 20 minutes or at 4° C. for five minutes, then washed three times with PBS and blocked with 4% chicken serum (Invitrogen-Gibco, Carlesbad, Calif.) in PBS for 30 minutes at room temperature. […]
# [2] = T25 flask on 1:30 MATRIGEL, MEF conditioned media
molecule,measurement,setting,value
Collagenase,CELL NUMBER,[1],3.5 10^5
same,density after four days in culture,H1 passage 37 hES cells; [2],"138,000 cell/cm^2"
same,"density after four days in culture, cells total",H1 passage 37 hES cells; [2],3.45 million cells total
same,growth and morphology after two passages,H1 passage 37 hES cells; additional 6 days on MATRIGEL after second passage,form large colonies of dense and homogeneous cells
same,lifting of cells from the dish,"H1 passage 37 hES cells; first passage from MEF feeders, 10 min at 37° C.",did not lift cells
same,density of lifted cells,"H1 passage 37 hES cells; first passage from MEF feeders, hemocytometer count",not countable by hemocytometer
same,lifting of cells from plastic and MATRIGEL,"H1 passage 37 hES cells; second passage, 10-minute treatment at 37° C.",did not lift cells
TRYPSIN,time to release the cells,[1]; 36° C.,five
same,recovered cell counts / maintaining cell attachment/growth (in words),"[1]; after three days culture, compared with collagenase",significantly less effective at maintaining cell attachment/growth
same,CELL NUMBER,[1],0.1 10^5
"Wnt3a: Wnt3a (R&D Systems), 10 ng/ml in the definitive endoderm protocol (protein, UniProt P56704 19-352, looked up) Protein Wnt-3a: SYPIWWSLAVGPQYSSLGSQPILCASIPGLVPKQLRFCRNYVEIMPSVAEGIKIGIQECQHQFRGRRWNCTTVHDSLAIFGPVLDKATRESAFVHAIASAGVAFAVTRSCAEGTAAICGCSSRHQGSPGKGWKWGGCSEDIEFGGMVSREFADARENRPDARSAMNRHNNEAGRQAIASHMHLKCKCHGLSGSCEVKTCWWSQPDFRAIGDFLKDKYDSASEMVVEKHRESRGWVETLRPRYTYFKVPTERDLVYYEASPNFCEPNPETGSFGTRDRTCNVSSHGIDGCDLLCCGRGHNARAERRREKCRCVFHWCCYVSCQECTRVYDVHTCK",number of cell nuclei per well,hES H9scp18,highest number of cell nuclei per well with little variability between wells
